Experimental data as given in patent US11008301B2, “Piperidinone formyl peptide 2 receptor agonists” (BRISTOL-MYERS SQUIBB COMPANY, priority 2017, dated 2021).

Biological target: human FPR2 (Homo sapiens (Human), UniProt P25090)
Assay: FPR2 cyclic adenosine monophosphate (cAMP) assay
Assay type: cell-based
Settings: CHO cells overexpressing human FPR2; cAMP assay; read-out: hFPR2 agonist activity EC50 (hFPR2 Assay)
Method: FPR2 and FPR1 Cyclic Adenosine Monophosphate (cAMP) Assays. A mixture of forskolin (5 μM final for FPR2 or 10 μM final for FPR1) and IBMX (200 μM final) were added to 384-well Proxiplates (Perkin-Elmer) pre-dotted with test compounds in DMSO (1% final) at final concentrations in the range of 1.7 nM to 100 μM. Chinese Hamster Ovary cells (CHO) overexpressing human FPR1 or human FPR2 receptors were cultured in F-12 (Ham's) medium supplemented with 10% qualified FBS, 250 μg/ml zeocin and 300 μg/ml hygromycin (Life Technologies). Reactions were initiated by adding 2,000 human FPR2 cells per well or 4,000 human FPR1 cells per well in Dulbecco's PBS (with calcium and magnesium) (Life Technologies) supplemented with 0.1% BSA (Perkin-Elmer). The reaction mixtures were incubated for 30 min at room temperature. The level of intracellular cAMP was determined using the HTRF HiRange cAMP assay reagent kit (Cisbio) according to manufacturer's instruction. Solutions of cryptate conjugated anti-cAMP and d2 flurorophore-labelled cAMP were made in a supplied lysis buffer separately. Upon completion of the reaction, the cells were lysed with equal volume of the d2-cAMP solution and anti-cAMP solution. After a 1-h room temperature incubation, time-resolved fluorescence intensity was measured using the Envision (Perkin-Elmer) at 400 nm excitation and dual emission at 590 nm and 665 nm. A calibration curve was constructed with an external cAMP standard at concentrations ranging from 1 μM to 0.1 pM by plotting the fluorescent intensity ratio from 665 nm emission to the intensity from the 590 nm emission against cAMP concentrations. The potency and activity of a compound to inhibit cAMP production was then determined by fitting to a 4-parametric logistic equation from a plot of cAMP level versus compound concentrations.

human FPR2, sequence (P25090 whole entry): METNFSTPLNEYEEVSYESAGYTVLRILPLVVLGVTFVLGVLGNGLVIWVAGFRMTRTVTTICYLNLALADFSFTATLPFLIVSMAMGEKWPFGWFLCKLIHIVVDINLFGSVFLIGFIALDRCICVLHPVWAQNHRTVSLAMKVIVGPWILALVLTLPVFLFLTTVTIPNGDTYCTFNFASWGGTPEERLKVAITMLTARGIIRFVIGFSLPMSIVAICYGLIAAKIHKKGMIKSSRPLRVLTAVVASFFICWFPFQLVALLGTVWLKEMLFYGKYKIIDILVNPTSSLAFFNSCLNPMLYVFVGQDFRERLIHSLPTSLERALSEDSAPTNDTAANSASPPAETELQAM

SMILES | EC50
CS(=O)(=O)C1CCN(c2ccc(N3CCC[C@@H](NC(=O)Nc4ccc(Cl)cc4F)C3=O)c(F)c2F)C1 (stereo partly drawn) [Example 89] | ≤ 10 nM
O=C(Nc1ccc(C(F)(F)F)nc1)N[C@@H]1CCCN(c2ccc(N3[C@@H]4CC[C@H]3COC4)nc2)C1=O [Example 62] | 100 to 1000 nM
O=C(Nc1ccc(C(F)(F)F)cc1)N[C@@H]1CCCN(c2ccc(N3CCCCC3=O)cc2F)C1=O [Example 52] | 10 to 100 nM
CC1(O)CCCN(c2ccc(N3CCC[C@@H](NC(=O)Nc4ccc(Cl)cc4)C3=O)cc2)C1 (stereo partly drawn) [Example 93] | ≤ 10 nM
O=C(Nc1ccc(Cl)cc1)N[C@@H]1CCCN(c2ccc(N3CCC4(CC4)C3)cc2)C1=O [Example 96] | ≤ 10 nM
O=C(Nc1ccc(Cl)cc1F)N[C@@H]1CCCN(c2ccc(N3CCCCC3=O)c(F)c2F)C1=O [Example 80] | ≤ 10 nM
CS(=O)(=O)C1CCN(c2ccc(N3CCC[C@@H](NC(=O)Nc4ccc(Cl)cc4)C3=O)c(F)c2F)C1 (stereo partly drawn) [Example 87] | ≤ 10 nM
COC[C@@H]1CCCN1c1ccc(N2CCC[C@@H](NC(=O)Nc3ccc(C(F)(F)F)cn3)C2=O)cn1 [Example 63] | 100 to 1000 nM
O=C(Nc1ccc(C(F)(F)F)cc1)N[C@@H]1CCCN(c2ccc(N3CCN(CCO)CC3)nc2)C1=O [Example 61] | 10 to 100 nM
O=C(Nc1ccc(Cl)cc1F)N[C@@H]1CCCN(c2ccc(N3CC[C@@H](F)C3)cc2)C1=O [Example 82] | ≤ 10 nM
O=C(Nc1ccc(C(F)(F)F)cn1)N[C@@H]1CCCN(c2ccc(N3CCCCC3=O)cc2)C1=O [Example 49] | 100 to 1000 nM
O=C(Nc1ccc(C(F)(F)F)cn1)N[C@@H]1CCCN(c2ccc(N3CCCCC3=O)cc2F)C1=O [Example 51] | 100 to 1000 nM

Results, then the molecule that gave them:

EC50 | SMILES
10 to 100 nM | CC1CCN(c2ccc(N3CCC[C@@H](NC(=O)Nc4ccc(C(F)(F)F)cc4)C3=O)cc2)CC1 [Example 41]
10 to 100 nM | O=C(Nc1ccc(C(F)(F)F)cc1)N[C@@H]1CCCN(c2ccc(N3CCCC3=O)cc2)C1=O [Example 2]
100 to 1000 nM | C[C@@H]1COCCN1c1ccc(N2CCC[C@@H](NC(=O)Nc3ccc(C(F)(F)F)cn3)C2=O)cc1 [Example 48]
≤ 10 nM | O=C(Nc1ccc(C(F)(F)F)cc1)N[C@@H]1CCCN(c2ccc(N3CC[C@@H](O)C3)cc2)C1=O [Example 1, 1-(1-(4-((R)-3-Hydroxypyrrolidin-1-yl)phenyl)-2-oxopiperidin-3-yl)-3-(4-(trifluoromethyl)phenyl)urea]
≤ 10 nM | CC(C)[C@@H]1COCCN1c1ccc(N2CCC[C@@H](NC(=O)Nc3ccc(C(F)(F)F)cc3)C2=O)cc1 [Example 39]
10 to 100 nM | O=C(Nc1ccc(C(F)(F)F)cc1)N[C@@H]1CCCN(c2ccc(N3CCCC(F)C3)nc2)C1=O (stereo partly drawn) [Example 57]
≤ 10 nM | O=C(Nc1ccc(C(F)(F)F)cc1)N[C@@H]1CCCN(c2ccc(N3C[C@H]4CC[C@@H](C3)O4)cc2)C1=O [Example 5]
10 to 100 nM | CN1CCN(c2ccc(N3CCC[C@@H](NC(=O)Nc4ccc(C(F)(F)F)cc4)C3=O)cc2)CC1 [Example 44]
100 to 1000 nM | O=C(Nc1ccc(C(F)(F)F)cc1)N[C@@H]1CCCN(c2ccc(N3CCCC(CO)C3)nc2)C1=O (stereo partly drawn) [Example 64]
≤ 10 nM | C[C@@H]1COCCN1c1ccc(N2CCC[C@@H](NC(=O)Nc3ccc(C(F)(F)F)cc3)C2=O)cc1 [Example 35]
10 to 100 nM | C[C@@H]1COCCN1c1ccc(N2CCC[C@@H](NC(=O)Nc3ccc(C(F)(F)F)nc3)C2=O)cc1 [Example 7]
100 to 1000 nM | COCC1COCCN1c1ccc(N2CCC[C@@H](NC(=O)Nc3ccc(C(F)(F)F)nc3)C2=O)cc1 (stereo partly drawn) [Example 22]
100 to 1000 nM | O=C(Nc1ccc(C(F)(F)F)cn1)N[C@@H]1CCCN(c2ccc(N3CC[C@@H](O)C3)cc2)C1=O [Example 28]
≤ 10 nM | O=C(Nc1ccc(C(F)(F)F)cc1)N[C@@H]1CCCN(c2ccc(N3CCC(F)(F)C3)cc2)C1=O [Example 68]
≤ 10 nM | O=C(Nc1ccc(C(F)(F)F)cc1)N[C@@H]1CCCN(c2ccc(N3CC(O)C(F)C3)cc2)C1=O (stereo partly drawn) [Example 74]
